*1 amine or outer side, *2 acyl side, *3 side chain or, on linkers, in order; H or OH if unused. Where a SMILES comes first, the peptide text is derived from it. Bridges are numbered along the chain shown (N, C = ends). Side-chain parts run from the residue outwards. [ ]: non-standard residue; d: D form. The star is where a group is joined. X1 = O=C(COCC(=O)*)NCCOCCOCCOCCOCCOCCNC(=O)CO/N=C/c1ccc(F)cc1; DOTA = O=C(O)CN1CCN(CC(=O)O)CCN(CC(=O)*)CCN(CC(=O)O)CC1; Gly(2R-SCH2CO) = O=C([C@H](N[*:1])SCC(=O)[*:3])[*:2]; X3 = C/C(=N\O)C(C)(C)NCCC(CCNC(C)(C)/C(C)=N/O)CCN*; Gly(αR-SH) = O=C([C@H](N[*:1])S[*:3])[*:2]; Glutaryl = O=C(CCCC(=O)[*:2])[*:1]; X2 = NC(=O)COCC(=O)NCCOCCOCCOCCN*

The test in a line: Displacement of [125I]echistatin from AlphaVbeta3/AlphaVbeta5 integrin receptor in EAHy 926 cells. The class given is cell-based, Homo sapiens.
In general, Ki refers to the dissociation constant of the complex between target and ligand, obtained from inhibition or displacement. Read a low Ki as a stronger hold on the target. For the molecule `CC[N+]1=C(/C=C/C=C/C=C2/N(CCCCCC(=O)NCCCC[C@@H]3NC(=O)CS[C@H](C(=O)NCCOCCOCCOCCNC(=O)COCC(N)=O)NC(=O)[C@H](Cc4ccccc4)NC(=O)[C@@H]4NC(=O)[C@H](CC(=O)O)NC(=O)CNC(=O)[C@H](CCCNC(=N)N)NC(=O)[C@H](NC3=O)SS4)c3ccc4c(S(=O)(=O)O)cc(S(=O)(=O)O)cc4c3C2(C)C)C(C)(C)c2c1ccc1c(S(=O)(=O)[O-])cc(S(=O)(=O)O)cc21`, the inhibition constant Ki was found to be 0.75 nM.

Molecule `N=C(N)NCCC[C@@H]1NC(=O)[C@@H]2NC(=O)[C@H](CCCCNC(=O)CN3CCN(CC(=O)O)CCN(CC(=O)O)CCN(CC(=O)O)CC3)NC(=O)CS[C@H](C(=O)NCCOCCOCCOCCNC(=O)COCC(N)=O)NC(=O)[C@H](Cc3ccccc3)NC(=O)[C@H](NC(=O)[C@H](CC(=O)O)NC(=O)CNC1=O)SS2` (K(DOTA)[Gly(αR-SH)]RGD[Gly(αR-SH)]F[Gly(2R-SCH2CO)]-X2; disulfide 2-6; lactam N-8) showed a Ki of 3.2 nM.

`N=C(N)NCCC[C@@H]1NC(=O)[C@@H]2NC(=O)[C@H](CCCCNC(=O)COCC(=O)NCCOCCOCCOCCOCCOCCNC(=O)CO/N=C/c3ccc(F)cc3)NC(=O)CS[C@H](C(=O)NCCOCCOCCOCCNC(=O)COCC(N)=O)NC(=O)[C@H](Cc3ccccc3)NC(=O)[C@H](NC(=O)[C@H](CC(=O)O)NC(=O)CNC1=O)SS2` (K(X1)[Gly(αR-SH)]RGD[Gly(αR-SH)]F[Gly(2R-SCH2CO)]-X2; disulfide 2-6; lactam N-8) had a Ki of 8.2 nM.

Molecule `C/C(=N\O)C(C)(C)NCCC(CCNC(=O)CCCC(=O)NCCCC[C@@H]1NC(=O)CS[C@H](C(=O)NCCOCCOCCOCCNC(=O)COCC(N)=O)NC(=O)[C@H](Cc2ccccc2)NC(=O)[C@@H]2NC(=O)[C@H](CC(=O)O)NC(=O)CNC(=O)[C@H](CCCNC(=N)N)NC(=O)[C@H](NC1=O)SS2)CCNC(C)(C)/C(C)=N/O` (K([Glutaryl-X3])[Gly(αR-SH)]RGD[Gly(αR-SH)]F[Gly(2R-SCH2CO)]-X2; disulfide 2-6; lactam N-8) came in with a Ki of 3.1 nM.

Molecule `N=C(N)NCCC[C@@H]1NC(=O)[C@@H]2NC(=O)[C@H](CCCCN)NC(=O)CS[C@H](C(=O)NCCOCCOCCOCCNC(=O)COCC(N)=O)NC(=O)[C@H](Cc3ccccc3)NC(=O)[C@H](NC(=O)[C@H](CC(=O)O)NC(=O)CNC1=O)SS2` (K[Gly(αR-SH)]RGD[Gly(αR-SH)]F[Gly(2R-SCH2CO)]-X2; disulfide 2-6; lactam N-8) registered a Ki of 6.8 nM.
